According to patent US11466031B2, “Polymorphic forms of bictegravir and its sodium salt” (Mylan Laboratories Limited, priority 2018, dated 2022):

Columns and labels:
[1] = Storage stability: HPLC purity; format: physicochemical
[2] = Storage stability: polymorph integrity by PXRD; format: physicochemical
Procedure: The crystalline forms of bictegravir disclosed herein may be characterized by X-ray powder diffraction pattern (PXRD). Samples of each polymorph were analyzed on a BRUKER D-8 Discover powder diffractometer equipped with goniometer of θ/2θ configuration and Lynx Eye detector. The Cu-anode X-ray tube was operated at 40 kV and 30 mA. The experiments were conducted over the 2θ range of 2.0°-50.0°, 0.030° step size and 0.4 seconds step time. […] The samples were analyzed by PXRD for polymorph integrity.

[3] = at 25° C./60% RH, 6 months, listed as crystalline bictegravir Form M1
[4] = at 40° C./75% RH, 6 months, listed as crystalline bictegravir Form M1
[5] = at 25° C./60% RH, 6 months, listed as Form M2
[6] = at 40° C./75% RH, 6 months, listed as Form M2
[7] = at 25° C./60% RH, 6 months, listed as amorphous bictegravir sodium
[8] = at 40° C./75% RH, 6 months, listed as amorphous bictegravir sodium

| SMILES | HPLC purity ([1]; at 25° C./60% RH, 1 months) | HPLC purity ([1]; at 25° C./60% RH, 2 months) | HPLC purity ([1]; at 25° C./60% RH, 3 months) | HPLC purity ([1]; at 25° C./60% RH, 6 months) | HPLC purity ([1]; at 25° C./60% RH, Initial) | HPLC purity ([1]; at 40° C./75% RH, 1 months) | HPLC purity ([1]; at 40° C./75% RH, 2 months) | HPLC purity ([1]; at 40° C./75% RH, 3 months) | HPLC purity ([1]; at 40° C./75% RH, 6 months) | HPLC purity ([1]; at 40° C./75% RH, Initial) | PXRD ([2]; at 25° C./60% RH, 1 months) | PXRD ([2]; at 25° C./60% RH, 2 months) | PXRD ([2]; at 25° C./60% RH, 3 months) | PXRD ([2]; at 25° C./60% RH, 6 months) | PXRD ([2]; at 25° C./60% RH, Initial) | PXRD ([2]; at 40° C./75% RH, 1 months) | PXRD ([2]; at 40° C./75% RH, 2 months) | PXRD ([2]; at 40° C./75% RH, 3 months) | PXRD ([2]; at 40° C./75% RH, 6 months) | PXRD ([2]; at 40° C./75% RH, Initial) | further results |
| --- | --- | --- | --- | --- | --- | --- | --- | --- | --- | --- | --- | --- | --- | --- | --- | --- | --- | --- | --- | --- | --- |
| O=C(NCc1c(F)cc(F)cc1F)c1cn2c(c(O)c1=O)C(=O)N1[C@H]3CC[C@H](C3)O[C@@H]1C2 [Bictegravir Form M1, bictegravir] | 99.68 | 99.67 | 99.73 | 99.73 | 99.66 | 99.67 | 99.69 | 99.80 | 99.78 | 99.66 | Stable | Stable | Stable | Stable | Crystalline | Stable | Stable | Stable | Stable | Crystalline | HPLC purity [1, 3]: no change; HPLC purity [1, 4]: no change; PXRD [2, 3]: no change; PXRD [2, 4]: no change |
| O=C(NCc1c(F)cc(F)cc1F)c1cn2c(c(O)c1=O)C(=O)N1[C@H]3CC[C@H](C3)O[C@@H]1C2 [Bictegravir Form M2, bictegravir] | 99.68 | 99.67 | 99.73 | 99.73 | 99.68 | 99.67 | 99.69 | 99.73 | 99.71 | 99.68 | Stable | Stable | Stable | Stable | Crystalline | Stable | Stable | Stable | Stable | Crystalline | HPLC purity [1, 5]: no change; HPLC purity [1, 6]: no change; PXRD [2, 5]: no change; PXRD [2, 6]: no change |
| O=C(NCc1c(F)cc(F)cc1F)c1cn2c(c([O-])c1=O)C(=O)N1[C@@H]3CC[C@@H](C3)O[C@H]1C2.[Na+] [Bictegravir Sodium Amorphous form, (2R,5S,13aR)-2,5-Methanopyrido[1′,2′:4,5]pyrazino[2,1-b][1,3]oxazepine-10-carboxamide, 2,3,4,5,7,9, 13,13a-octahydro-8-hydroxy-7,9-dioxo-N-[(2,4,6-trifluorophenyl)methyl]-, sodium salt (1:1)] | 99.68 | 99.52 | 99.54 | 99.46 | 99.48 | 99.68 | 99.54 | 99.48 | 99.31 | 99.48 | Stable | Stable | Stable | Stable | Amorphous | Stable | Stable | Stable | Stable | Amorphous | HPLC purity [1, 7]: no change; HPLC purity [1, 8]: no change; PXRD [2, 7]: no change; PXRD [2, 8]: no change |
